The values that follow come from patent publication US6825166B2 (priority 2001, dated 2004).

Common to all, as to format: cell-based
Assay [1] concerns Lu-1 (human lung cancer cell lines). Nature of the assay: Cytotoxicity (sulforhodamine B growth assay), Protocol A, Lu cells. The following applies: 62.5-250 μg/ml added on day of plating, replenished every 3 days. On the procedure:
(§1) The cell lines selected were KB (human epidermoid carcinoma in the mouth, ATCC #CCL-17), Lu-1 (human lung cancer cell lines, obtained from the Department of Surgical Oncology, University of Illinois, College of Medicine), and hTERT (telomerase-immortalized normal epithelial cell line, Clontech #C4000-1). Various doses of the compounds were evaluated under two treatment protocols. In Protocol A, cultures of each of the KB, Lu and hTERT cells were treated with various doses of the three conjugate compounds from the day of culture onward. In Protocol B, cultures of each of the KB, Lu and hTERT cells were grown to confluence (9 days), and then treated with various doses of the Transferrin-7-paclitaxel conjugate for the duration of the experiment.
(§2) KB was cultured in DMEM (GIBCO) supplemented with 10% fetal bovine serum (FBS), 100 units/ml penicillin G, 100 μg/ml streptomycin sulfate, 0.25 μg/ml amphotericin B (Fungizone) (PSF) (GIBCO) and 1% non-essential amino acids (NAA) (Sigma). Lu was maintained in MEME (GIBCO) supplemented with 10% FBS, PSF, and 1% NAA. hTERT-RPE1 was maintained in DMEM/F-12 (GIBCO) supplemented with 10% FBS+PSF. All cell lines were cultured at 37° C. in 100% humidity with a 5% CO2 atmosphere in air.
(§3) The overall procedures were those as described by Skehan et al., New calorimetric cytotoxicity assay for anticancer-drug screening, J. Natl. Cancer Inst. 82:1107-1112, 1990, and Likhitwitayawuid et al., Cytotoxic and antimalarial bisbenzylisoquinoline alkaloids from Stephania erecta. J. Nat. Prod. 56:30-38, 1993. Cells were typically grown to 60-70% confluence, the medium was changed, and the cells were used for test procedures one day later. Test samples were initially dissolved in sterilized PBS. Serial dilutions were performed using PBS as the solvent, and 10 μl were added to the three wells. PBS (10 μl) was added to control groups. […] The plates were placed on a shaker for 5 minutes, and the absorption was determined at 515 nm using an ELISA plate reader. […]
On the technique in general: Sulforhodamine B stains cellular protein and so reports cell mass.

Assay [2] deals with KB (human epidermoid carcinoma in the mouth). The assay can be described thus: Cytotoxicity (sulforhodamine B growth assay), Protocol B (confluent cultures), KB cells. The following applies: KB cells grown 9 days before treatment. On the procedure: as §1, §2, §3
Assay [3] relates to Lu-1 (human lung cancer cell lines). Nature of the assay: Cytotoxicity (sulforhodamine B growth assay), Protocol B (confluent cultures), Lu cells. The following applies: Lu cells grown 9 days before treatment. On the procedure:
as §1, §2, §3

In assay [4] the test system is hTERT (telomerase-immortalized normal epithelial cell line). The assay can be described thus: Cytotoxicity (sulforhodamine B growth assay), Protocol B (confluent cultures), hTERT cells. The following applies: for effect on cell growth: hTERT cells grown 9 days before treatment. On the procedure: as §1, §2
(§4) The overall procedures were those as described by Skehan et al., New calorimetric cytotoxicity assay for anticancer-drug screening, J. Natl. Cancer Inst. 82:1107-1112, 1990, and Likhitwitayawuid et al., Cytotoxic and antimalarial bisbenzylisoquinoline alkaloids from Stephania erecta. J. Nat. Prod. 56:30-38, 1993. Cells were typically grown to 60-70% confluence, the medium was changed, and the cells were used for test procedures one day later. Test samples were initially dissolved in sterilized PBS. Serial dilutions were performed using PBS as the solvent, and 10 μl were added to the three wells. PBS (10 μl) was added to control groups. After the plates were prepared, cells were removed from the tissue culture flasks by treatment with trypsin, enumerated, and diluted with fresh media. KB (3×10^4 cells/ml), Lu (5×10^4 cell/ml) and hTERT-RPE1 (4×10^4 cells/ml) cells (in 190 μl of media) were added to the 96-well plates. The plates were incubated at 37° C. in 5% CO2, the cells fixed by addition of 100 μl of cold 20% trichloroacetic acid and incubated at 4° C. for 30 min. The plates were washed with tap water (3×) and dried overnight. The fixed cells were stained 30 min by the addition of 100 μl of 0.4% sulforhodamine B (w/v) dissolved in 1% acetic acid. The plates were washed with 1% acetic acid (3×) and allowed to dry. The bound dye was solubilized by the addition of 10 mM unbuffered Tris base, pH 10 (200 μl/well). The plates were placed on a shaker for 5 minutes, and the absorption was determined at 515 nm using an ELISA plate reader. In each case, a zero-day control was performed by adding an equivalent number of cells to several wells of the 96-well plates and incubating at 37° C. for a period of 30 min. The cells were then fixed with tichloroacetic acid and processed as described above.

Assay [5] has the same test system. The assay can be described thus: Cytotoxicity (sulforhodamine B growth assay), Protocol A, hTERT cells. The following applies: 62.5-250 μg/ml added on day of plating, replenished every 3 days. On the procedure: as §1, §2, §3
In assay [6] the test system is KB (human epidermoid carcinoma in the mouth). The assay can be described thus: Cytotoxicity (sulforhodamine B growth assay), Protocol A, KB cells. The following applies: for effect on cell growth (optical density versus time): 62.5-250 μg/ml added on day of plating, replenished every 3 days. On the procedure:
as §1, §2, §4
The first series of studies were conducted with the Transferrin-3-cholesterol conjugate, the Transferrin-rhodamine123 conjugate and the Transferrin-7-paclitaxel conjugate following Protocol A, in which various concentrations of test compounds ranging from 62.5-250 μg/ml were added on the day of plating, and media were replenished every 3 days, maintaining the same concentrations of the test compounds. As shown by plotting optical density versus time, the Transferrin-3-cholesterol conjugate and the Transferrin-rhodamine123 conjugate were not active with any of the cell lines (FIGS. 5, 6, 8, 9, 11, 12).
Therefore, the experiment was repeated with the Transferrin-7-paclitaxel conjugate with lower concentrations.

Regarding “Transferrin-7-paclitaxel conjugate: 7-acyl-pentanal paclitaxel linked to Transferrin through Schiff base; 3 paclitaxel per Transferrin”, the “effect on cell growth (optical density versus time)” value in assay [1], in assay [5] and in assay [6] was “complete inhibition of cell growth” in each case. In addition, the “effect on cell number” value in assay [2] (0.5 μg/ml) is recorded as “cell number paralleled that of the control”; in assay [2] (5 μg/ml), “significant reduction in cell number”; in assay [2] (50 μg/ml), “significant reduction in cell number”; in assay [3] (50 μg/ml) it was “significant reduction in cell number”. Also, the entries for the “effect on cell number (reduction relative to that at 50 μg/ml)” value in assay [3] (0.5 μg/ml) and in assay [3] (5 μg/ml) were “negated” and “diminished”, respectively. Moreover, in assay [4] (conclusion from KB, Lu and hTERT results), the “selectivity: cancer cells (KB and Lu) versus normal cells (hTERT)” value was “primarily targeting cancer cells (KB and Lu) while not significantly affecting normal cells (hTERT)”. In addition, the “effect on cell growth” value is “Slight increases in cell growth” in assay [4] (0.5 μg/ml); “Slight increases in cell growth” in assay [4] (5 μg/ml); “growth was diminished” in assay [4] (50 μg/ml); “no effect on growth” in assay [6] (0.5 μg/ml); “complete growth inhibition” in assay [6] (5 μg/ml); “complete growth inhibition” in assay [6] (50 μg/ml). For the same substance, the “cell number on day 16” value in assay [4] (hTERT cells, 50 μg/ml, day 16 versus day 9) is reported as “approximately the same as on day 9”.
Turning to “Transferrin-rhodamine123 conjugate: rhodamine123 linked to Transferrin using glutaraldehyde as a linker between free amino groups”, the “effect on cell growth (optical density versus time)” value in assay [1], in assay [5] and in assay [6] was “not active” throughout.
Turning to “Transferrin-3-cholesterol conjugate: 3-acyl-pentanal cholesterol linked with Transferrin; non-cytotoxic molecule control conjugate”, the “effect on cell growth (optical density versus time)” value in assay [1], in assay [5] and in assay [6] was “not active” throughout.
